According to PubChem BioAssay AID1918939 (Molecular Pharmacology Branch, DTP, NCI, 2023):

Test system: 653999-131-R-J2-PDC complex spheroid viability
Assay: Anticancer human tumor 653999-131-R-J2-PDC patient-derived lung adenocarcinoma cell line growth inhibition
Conditions: for IC50: curve of first compound; for viability, T/C: stronger effect = lower value
In short: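 Complex spheroids of tumor cells with HUVEC and human MSCs, exposed to iadademstat combined with other agents. Each agent tested in half-log steps from near clinical Cmax (else 10 microM top), DMSO ≤0.25%.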

[1] = second compound 0.1 µM, first compound 0.00949 µM
[2] = second compound 0.1 µM, first compound 0.03 µM
[3] = second compound 0.1 µM, first compound 0.0949 µM
[4] = second compound 0.1 µM, first compound 0.3 µM
[5] = second compound 0.1 µM, first compound 0.949 µM
[6] = second compound 0.1 µM, first compound 3 µM
[7] = second compound 0.316 µM, first compound 0.00949 µM
[8] = second compound 0.316 µM, first compound 0.03 µM
[9] = second compound 0.316 µM, first compound 0.0949 µM
[10] = second compound 0.316 µM, first compound 0.3 µM
[11] = second compound 0.316 µM, first compound 0.949 µM
[12] = second compound 0.316 µM, first compound 3 µM
[13] = second compound 1 µM, first compound 0.00949 µM
[14] = second compound 1 µM, first compound 0.03 µM
[15] = second compound 1 µM, first compound 0.0949 µM
[16] = second compound 1 µM, first compound 0.3 µM
[17] = second compound 1 µM, first compound 0.949 µM
[18] = second compound 1 µM, first compound 3 µM
[19] = second compound 3.16 µM, first compound 0.00949 µM
[20] = second compound 3.16 µM, first compound 0.03 µM
[21] = second compound 3.16 µM, first compound 0.0949 µM
[22] = second compound 3.16 µM, first compound 0.3 µM
[23] = second compound 3.16 µM, first compound 0.949 µM
[24] = second compound 3.16 µM, first compound 3 µM
[25] = second compound 10 µM, first compound 0.00949 µM
[26] = second compound 10 µM, first compound 0.03 µM
[27] = second compound 10 µM, first compound 0.0949 µM
[28] = second compound 10 µM, first compound 0.3 µM
[29] = second compound 10 µM, first compound 0.949 µM
[30] = second compound 10 µM, first compound 3 µM
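Note: spheroids exposed to agents for seven days before readout.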

Compound: COc1cc(C2c3cc4c(cc3C(OC3OC5COC(C)OC5C(O)C3O)C3COC(=O)C23)OCO4)cc(OC)c1O (stereo not given) + NC1CC1c1ccc(-c2cccc(O)c2)cc1
- IC50 (second compound 0.1 µM): 166 nM
- IC50 (second compound 0.316 µM): 135 nM
- IC50 (second compound 1 µM): 110 nM
- IC50 (second compound 3.16 µM): 97.6 nM
- IC50 (second compound 10 µM): 248 nM
- viability, T/C [1]: 83.5%
- viability, T/C [2]: 67.2%
- viability, T/C [3]: 57.9%
- viability, T/C [4]: 41.4%
- viability, T/C [5]: 37%
- viability, T/C [6]: 27.8%
- viability, T/C [7]: 75.4%
- viability, T/C [8]: 62.9%
- viability, T/C [9]: 50.3%
- viability, T/C [10]: 45.9%
- viability, T/C [11]: 34.8%
- viability, T/C [12]: 25.2%
- viability, T/C [13]: 75.7%
- viability, T/C [14]: 64%
- viability, T/C [15]: 51.8%
- viability, T/C [16]: 38.3%
- viability, T/C [17]: 35.9%
- viability, T/C [18]: 26.1%
- viability, T/C [19]: 77.3%
- viability, T/C [20]: 66.2%
- viability, T/C [21]: 49.4%
- viability, T/C [22]: 39.5%
- viability, T/C [23]: 32.8%
- viability, T/C [24]: 30.5%
- viability, T/C [25]: 73%
- viability, T/C [26]: 65.9%
- viability, T/C [27]: 61.5%
- viability, T/C [28]: 46.3%
- viability, T/C [29]: 39%
- viability, T/C [30]: 31.1%

Compound: CC(C)CC(NC(=O)CNC(=O)c1cc(Cl)ccc1Cl)B1OC(=O)CC(CC(=O)O)(C(=O)O)O1 (stereo not given) + NC1CCC(NC2CC2c2ccccc2)CC1
- IC50 (second compound 0.1 µM): 9.68 nM
- IC50 (second compound 0.316 µM): 13.9 nM
- IC50 (second compound 1 µM): 10.9 nM
- IC50 (second compound 3.16 µM): 11.1 nM
- IC50 (second compound 10 µM): 11.5 nM
- viability, T/C (second compound 0.1 µM, first compound 0.000316 µM): 98.5%
- viability, T/C (second compound 0.1 µM, first compound 0.001 µM): 102%
- viability, T/C (second compound 0.1 µM, first compound 0.00316 µM): 106%
- viability, T/C (second compound 0.1 µM, first compound 0.01 µM): 48.4%
- viability, T/C (second compound 0.1 µM, first compound 0.0316 µM): 28.5%
- viability, T/C (second compound 0.1 µM, first compound 0.1 µM): 10.7%
- viability, T/C (second compound 0.316 µM, first compound 0.000316 µM): 80.7%
- viability, T/C (second compound 0.316 µM, first compound 0.001 µM): 102%
- viability, T/C (second compound 0.316 µM, first compound 0.00316 µM): 99%
- viability, T/C (second compound 0.316 µM, first compound 0.01 µM): 60.4%
- viability, T/C (second compound 0.316 µM, first compound 0.0316 µM): 21.9%
- viability, T/C (second compound 0.316 µM, first compound 0.1 µM): 8.68%
- viability, T/C (second compound 1 µM, first compound 0.000316 µM): 87.8%
- viability, T/C (second compound 1 µM, first compound 0.001 µM): 90.5%
- viability, T/C (second compound 1 µM, first compound 0.00316 µM): 95.8%
- viability, T/C (second compound 1 µM, first compound 0.01 µM): 52.7%
- viability, T/C (second compound 1 µM, first compound 0.0316 µM): 19.4%
- viability, T/C (second compound 1 µM, first compound 0.1 µM): 10.1%
- viability, T/C (second compound 3.16 µM, first compound 0.000316 µM): 99.1%
- viability, T/C (second compound 3.16 µM, first compound 0.001 µM): 85.4%
- viability, T/C (second compound 3.16 µM, first compound 0.00316 µM): 106%
- viability, T/C (second compound 3.16 µM, first compound 0.01 µM): 53.1%
- viability, T/C (second compound 3.16 µM, first compound 0.0316 µM): 26.5%
- viability, T/C (second compound 3.16 µM, first compound 0.1 µM): 9.89%
- viability, T/C (second compound 10 µM, first compound 0.000316 µM): 98.2%
- viability, T/C (second compound 10 µM, first compound 0.001 µM): 104%
- viability, T/C (second compound 10 µM, first compound 0.00316 µM): 122%
- viability, T/C (second compound 10 µM, first compound 0.01 µM): 55.4%
- viability, T/C (second compound 10 µM, first compound 0.0316 µM): 18.4%
- viability, T/C (second compound 10 µM, first compound 0.1 µM): 5%

Compound: Nc1ccccc1NC(=O)c1ccc(CNC(=O)OCc2cccnc2)cc1 + NC1CC1c1ccc(-c2cccc(O)c2)cc1
- IC50 (second compound 0.1 µM): 352 nM
- IC50 (second compound 0.316 µM): 245 nM
- IC50 (second compound 1 µM): 293 nM
- IC50 (second compound 3.16 µM): 213 nM
- IC50 (second compound 10 µM): 177 nM
- viability, T/C [1]: 89%
- viability, T/C [2]: 101%
- viability, T/C [3]: 81.5%
- viability, T/C [4]: 52.9%
- viability, T/C [5]: 22.6%
- viability, T/C [6]: 1.35%
- viability, T/C [7]: 93%
- viability, T/C [8]: 85.8%
- viability, T/C [9]: 64.3%
- viability, T/C [10]: 49.5%
- viability, T/C [11]: 20.4%
- viability, T/C [12]: 1.41%
- viability, T/C [13]: 81.2%
- viability, T/C [14]: 68.5%
- viability, T/C [15]: 77.9%
- viability, T/C [16]: 48%
- viability, T/C [17]: 13.1%
- viability, T/C [18]: 0.97%
- viability, T/C [19]: 84.6%
- viability, T/C [20]: 74.4%
- viability, T/C [21]: 69.4%
- viability, T/C [22]: 42.1%
- viability, T/C [23]: 15.8%
- viability, T/C [24]: 1.74%
- viability, T/C [25]: 76.1%
- viability, T/C [26]: 82.2%
- viability, T/C [27]: 57.1%
- viability, T/C [28]: 42.3%
- viability, T/C [29]: 13.3%
- viability, T/C [30]: 0.95%
